{"source": "patent US12031151B2", "about": "“Methods of improving protein titer in cell culture” (Regeneron Pharmaceuticals, Inc., priority 2021, dated 2024)", "test_system": "protein titer of dupilumab production cell culture", "assay": "LC-MS analysis of HEPES related impurities and titer correlation evaluation across cell culture production runs", "format": "cell-based", "settings": "for Pearson Correlation Coefficient, 5 HEPES salt lots / Pearson Correlation Coefficient, 7 CDM1B lots (Geel) / Pearson Correlation Coefficient, 20 CDM1B lots (Rens): correlation of impurity abundance with final titer; for Pearson Correlation Coefficient, 7 CDM1B lots (Geel): 7 CDM1B media lots; for Pearson Correlation Coefficient, 20 CDM1B lots (Rens): 20 CDM1B media lots; for correlation of impurity abundance with titer: dupilumab production runs, Site 1 (20 runs) and Site 2 (7 runs)", "experimental": "ANOVA analysis of the lot genealogy of 53 different components of a chemically defined media was performed between lots utilized in “high titer” performing cell culture runs and “low titer” performing cell culture runs. HEPES acid and salt were identified as “high risk” components, showing the strongest correlation with final titer (the correlation was stronger than the correlation between the titer and media as whole). HEPES also was identified as a “high risk component” in an independent risk-based analysis that considered the weight fractions of components in the media formulation, components' COA purity and their manufacturing methods.\nFollowing identification of HEPES as a “high risk” component with strong correlation to final titer, an analysis of the chemical composition of HEPES buffer lots was performed, including LC-MS and titer correlations evaluations.\nLarge scale production runs were performed at multiple sites to produce dupilumab. […] Based on the findings, and in accordance with the inventions, improved protein titer may be obtained by using media having reduced HEPES related impurities, in accordance with the inventions.\nFIG. 1 illustrates the relation between relative amounts of HEPES+[O2]−[H2] and protein titer. […] Summary of fit data is shown below each graph of FIGS. 2A and 2B.\nFIG. 3 illustrates the relation between relative amounts of HEPES−[CH4] and protein titer. […] Summary of fit data is shown below each graph of FIGS. 4A and 4B.", "data": [{"smiles": "O=CN(CCO)CCN(C=O)CCS(=O)(=O)O", "note": "[HEPES+[O2]−[H2]]", "values": [{"measurement": "Pearson Correlation Coefficient, 5 HEPES salt lots", "value": "−0.82"}, {"measurement": "Pearson Correlation Coefficient, 7 CDM1B lots (Geel)", "value": "−0.68"}, {"measurement": "Pearson Correlation Coefficient, 20 CDM1B lots (Rens)", "value": "−0.77"}, {"measurement": "correlation of impurity abundance with titer", "value": "negative correlation with titer"}]}, {"smiles": "C=CS(=O)(=O)O", "note": "[Vinylsulfonic acid]", "values": [{"measurement": "Pearson Correlation Coefficient, 5 HEPES salt lots", "value": "−0.60"}, {"measurement": "Pearson Correlation Coefficient, 7 CDM1B lots (Geel)", "value": 0.41}, {"measurement": "Pearson Correlation Coefficient, 20 CDM1B lots (Rens)", "value": 0.16}]}, {"smiles": "O=CN1CCN(CCS(=O)(=O)O)CC1", "note": "[HEPES−[CH4]]", "values": [{"measurement": "Pearson Correlation Coefficient, 5 HEPES salt lots", "value": "−0.85"}, {"measurement": "Pearson Correlation Coefficient, 7 CDM1B lots (Geel)", "value": "−0.83"}, {"measurement": "Pearson Correlation Coefficient, 20 CDM1B lots (Rens)", "value": "−0.68"}, {"measurement": "correlation of impurity abundance with titer", "value": "negative correlation with titer"}]}, {"smiles": "O=S(=O)(O)CC(O)O", "note": "[2,2-Dihydroxyethane-sulfonic acid]", "values": [{"measurement": "Pearson Correlation Coefficient, 5 HEPES salt lots", "value": "−0.85"}]}, {"smiles": "CC(=O)NCS(=O)(=O)O", "note": "[Acetamidomethane-sulfonic acid]", "values": [{"measurement": "Pearson Correlation Coefficient, 5 HEPES salt lots", "value": "−0.81"}, {"measurement": "Pearson Correlation Coefficient, 7 CDM1B lots (Geel)", "value": "−0.34"}, {"measurement": "Pearson Correlation Coefficient, 20 CDM1B lots (Rens)", "value": "−0.78"}]}]}
